Where “and” joins values, the source holds several entries; their conditions need not be identical. Equal values may be shown once.
What was measured:
Assay type in all cases: in vivo
[1] = Myocardial imaging in a normal mongrel dog (Examples 4 and 5)
Method: For example, time dependent scintiscans of the chest region of a patient can be used. A computer interface, 16 crystal, Ohio Nuclear Spectrometer, is used for these scans and about 5 mCi of a given radiopharmaceutical is injected; blood samples are concurrently collected via an indwelling intravenous catheter in order to determine blood clearance rates. Time dependent tissue distribution studies are then conducted.

[2] = Time dependent myocardial and gallbladder distributions, computer analysis of scintigraphic data (Example 7, FIG. 3); conditions: dog
Method: FIG. 3 compares the gallbladder uptake and heart clearing of 99m-Tc (diars)2 Cl2^+ with that of 99m-Tc (diars)2 Br2^+.
(§1) The two title complexes were injected into a dog as described for the complex of Example 4. […] These differences are graphically illustrated in FIG. 3, wherein are plotted time dependent myocardial and gallbladder distributions obtained by computer analysis of scintigraphic data; data for a given complex are normalized, but comparative data between complexes are not.

[3] = Blood clearance curves (Example 7, FIG. 4); conditions: dog
Excerpt: It is clear that these two chemically similar agents are somewhat differentiated in the biological system.
Imaging of the myocardium or the hepatobiliary system can then be carried out (after waiting for appropriate periods of time to permit blood clearance of the radiopharmaceutical), by standard scanning techniques (Andres, J. T. et al., "Nuclear Medicine", Wiley & Sons, N.Y., 1977; "Basic Science Principles of Nuclear Medicine", Boyd, C. M. and Dalrymple, G. V., eds., Morby, St. Louis, 1974). For example, time dependent scintiscans of the chest region of a patient can be used. A computer interface, 16 crystal, Ohio Nuclear Spectrometer, is used for these scans and about 5 mCi of a given radiopharmaceutical is injected; blood samples are concurrently collected via an indwelling intravenous catheter in order to determine blood clearance rates. Time dependent tissue distribution studies are then conducted.
as §1

[4] = Tissue distribution studies using normal female Sprague-Dawley rats (Table 1)
[5] = Hepatobiliary imaging in a mongrel dog (Example 6, FIGS. 1 and 2)
Method: FIG. 2 is a schematic describing the photograph of FIG. 1. Both the photograph and accompanying schematic were taken after the complex had cleared the blood (5 minutes after injection), entered the liver and started clearing the liver and entering the gallbladder (10 minutes after injection).
The title complex was injected in the same vehicle as in Example 4 into a mongrel dog and images were obtained by positioning a camera directly over the chest of the dog.

C[P+]1(C)CC[P+](C)(C)[99Tc-3]12([Br])([Br])[P+](C)(C)CC[P+]2(C)C [[99m-Tc(DMPE)2 Br2]^+, [99m-Tc(DMPE)2 Br2]Br]
Myocardial uptake by the heart ([1]; same conditions as Example 4): Myocardial uptake by the heart of a normal mongrel dog was observed

trans-[Tc-99m(diars)2 Br2 ]Br [trans-[Tc(diars)2 Br2]Br]
gallbladder handling of the two agents ([2]; FIG. 3): the gallbladder handles these two agents differently
gallbladder uptake (rate) ([2]; intravenous): relatively slow
time post intravenous injection at which the myocardium is readily visualized ([2]; intravenous): 20 to 40 min
Blood clearance curves, comparison of the two complexes [3]: biologically differentiated
Blood ([4]; 10 min post dose): 0.38(3) % of the dose/g
Femur Muscle ([4]; 10 min post dose): 0.22(6) % of the dose/g
Kidney ([4]; 10 min post dose): 3.1(6) % of the dose/g
Liver ([4]; 10 min post dose): 4.5(6) % of the dose/g
Pancreas ([4]; 10 min post dose): 1.0(3) % of the dose/g
Heart ([4]; 10 min post dose, 10 min): 2.3(5) % of the dose/g and 2.3 % of the dose/g
Blood ([4]; 30 min post dose): 0.27(3) % of the dose/g
Femur Muscle ([4]; 30 min post dose): 0.29(3) % of the dose/g
Heart ([4]; 30 min post dose): 1.8(1) % of the dose/g
Kidney ([4]; 30 min post dose): 2.3(1) % of the dose/g
Liver ([4]; 30 min post dose): 2.9(6) % of the dose/g
Pancreas ([4]; 30 min post dose): 1.2(2) % of the dose/g
Blood ([4]; 60 min post dose): 0.21(1) % of the dose/g
Femur Muscle ([4]; 60 min post dose): 0.26(5) % of the dose/g
Heart ([4]; 60 min post dose): 1.3(1) % of the dose/g
Kidney ([4]; 60 min post dose): 2.1(1) % of the dose/g
Liver ([4]; 60 min post dose): 2.7(3) % of the dose/g
Pancreas ([4]; 60 min post dose): 0.9(1) % of the dose/g
Blood ([4]; 120 min post dose): 0.18(3) % of the dose/g
Femur Muscle ([4]; 120 min post dose): 0.28(2) % of the dose/g
Heart ([4]; 120 min post dose): 1.0(1) % of the dose/g
Kidney ([4]; 120 min post dose): 1.9(1) % of the dose/g
Liver ([4]; 120 min post dose): 2.1(2) % of the dose/g
Pancreas ([4]; 120 min post dose): 0.8(1) % of the dose/g
complex in the blood pool ([5]; 0 minutes, immediately after injection): most of the complex is in the blood pool which is predominantly in the heart chambers
clearance from the blood ([5]; 1 minute after injection): begins to clear from the blood
gallbladder uptake ([5]; 1 minute after injection): The gallbladder does not yet contain any activity
liver uptake ([5]; 1 minute after injection): starts to enter the liver
clearance from the blood ([5]; 5 minutes): The complex is all gone from the blood
gallbladder uptake ([5]; 5 minutes): A small amount has begun to enter the gallbladder
heart image ([5]; 5 minutes): the heart image has disappeared
liver uptake ([5]; 5 minutes): most of it is in the liver
gallbladder uptake ([5]; 10 minutes): The gallbladder has taken up most of the complex and appears brighter than even the liver
gallbladder uptake ([5]; 20 minutes): The gallbladder has taken up the bulk of the complex
liver activity ([5]; 20 minutes): the liver contains relatively little activity
gallbladder uptake ([5]; 30 minutes, FIGS. 1 and 2): the gallbladder has taken up the bulk of the complex
liver activity ([5]; 30 minutes, FIGS. 1 and 2): the liver contains relatively little activity
time after injection at which the complex had cleared the blood ([5]; FIGS. 1 and 2): 5 min
time after injection at which the complex started clearing the liver and entering the gallbladder ([5]; FIGS. 1 and 2): 10 min
removal of the bulk of the activity [1]: The bulk of the activity is taken out by the hepatobiliary system
maximal myocardial uptake, time post injection ([1]; 50% ethanol/50% saline vehicle): about 20 minutes
visualization of the myocardium ([1]; high sensitivity colimator): clearly visualizing the myocardium

From US4387087A, “Cationic lipophilic complexes of ^99m Tc and their use for myocardial and hepatobiliary imaging” (priority 1980, dated 1983)
